# According to patent US9475843B2 (Zhejiang University, priority 2015, dated 2016):
# Read-outs that look alike come from different tables or passages of the source. No end group written: not given here.
# Tests used:
# P. aeruginosa CMCC27853 = test system: P. aeruginosa CMCC27853
# Method: (§1) Bacteria was inoculated on Mueller-Hinton (MH) agar plate, the inoculated agar plate was inverted to grow single colonies. A single colony was inoculated in 3 mL MH broth, and the broth was cultured with constant shaking at constant temperature until turbid. 30 μL of bacterial suspension was then transferred to 3 mL of fresh MH broth, and the broth was cultured with shaking at constant temperature until OD600≈0.5. 10 μL bacterial suspension was transferred to 10 mL fresh MH broth and then vortexed to mix well. […] In addition, 100 μL of bacterial suspension was added to a well as positive control, and 100 μL of MH broth was added to a well as negative control. Each testing condition and controls was performed with 6 repeats.
# (§2) The aforementioned antimicrobial peptides were used as controls in the same experiments described in the second, third, fourth and fifth embodiments.
# E. coli EPEC O78:K80 = test system: E. coli EPEC O78:K80
# Method: as §1, §2
# E. coli K 12 = test system: E. coli K 12
# Method: as §1, §2
# S. epidermidis ATCC12228 = test system: S. epidermidis ATCC12228
# Method: as §1, §2
# S. typhimurium CMCC50013 = test system: S. typhimurium CMCC50013
# Method: as §1, §2
# E. coli EPEC O44:K74 = test system: E. coli EPEC O44:K74
# Method: as §1, §2
# S. enteritidis CMCC50041 = test system: S. enteritidis CMCC50041
# Method: as §1, §2
# E. coli EPEC O144:K26 = test system: E. coli EPEC O144:K26
# Method: as §1, §2
# E. coli K 88 = test system: E. coli K 88
# Method: as §1, §2
# E. coli ATCC25922 = test system: E. coli ATCC25922
# Method: as §1, §2
# S. aureus ATCC25923 = test system: S. aureus ATCC25923
# Method: as §1, §2
# porcine erythrocytes = test system: porcine erythrocytes
# Method: Blood was collected from porcine vena cava with heparin added, and mixed with RPMI1640 medium at a volume ratio of 1:1. After centrifuging with FICOLL-PAQUE™, circular and milky peripheral blood mononuclear cells (PMBCs) were drawn for later use, and erythrocytes at the bottom were collected. The erythrocytes were washed with 1×PBS until the supernatant was colorless. Then the washed erythrocytes were diluted 90-fold (1:89) with 1×PBS to determine hemolysis activity.
# Triton X-100 (final concentration 1%) was used as positive control, and 10 uL 1×PBS was used as negative control. Each group was performed with 6 replications. Cells were cultured for 24 hrs at 37° C. in a cell culture incubator, and followed by centrifugation at 1500 rpm for 20 min. Then supernatant was transferred to a new 96-well plate to measure the values of OD at 414 nm and 546 nm using a microplate reader, and ΔOD was calculated. The formula for calculating hemolysis ratio is as follows: hemolysis ratio (%)=100%*(ΔOD treatment group−ΔOD negative control)/(ΔOD positive control−ΔOD negative control).
# as §2
# [1] = test system: S. choleraesuis CMCC50020
# Source text: The above results are average of 6 independent experimental repeats.
# [2] = test system: Porcine macrophage cells (3D4/2 cell line); assay: LPS-induced inflammation in porcine macrophages (cytokine mRNA); type: cell-based; conditions: FIG. 5
# Method: Porcine macrophage cells (3D4/2 cell line) were cultured on RPMI-1640 medium with 10% fetal bovine serum, at 37° C. in a 5% CO2 cell incubator, until the cells formed a monolayer with about 80-90% confluency. The cells were counted and plated. The cells were seeded to a 6-well plate at 1×10^6/well, RPMI-1640 complete medium was added, and the cells were cultured to 80% confluency. Then the medium was replaced by fresh serum-free RPMI-1640 medium (2 mL). […] Each group of experiments was repeated for six replications. After incubation for 24 hrs, cells were collected and total RNA was extracted using Trizol. cDNA was obtained by reverse transcription. Relative mRNA expression of IL-6, IL-8 and IL-22 was detected. The relative mRNA expression of IL-22, IL-8 and IL-6 were measured by quantitative fluorescence method. GAPDH gene was used as a internal reference gene.
# [3] = test system: porcine peripheral mononuclear cells; conditions: porcine PBMCs, peptide ≦256 μg/mL, 24 hrs
# Method: Purified PBMCs were diluted to 1×10^6 cells/mL, and cells were seeded with 90 uL per well in a 96-well plate. Further, background control well (100 μL RMPI1640 medium), low level control well (90 μL cell culture+10 μL PBS), and high level control well (90 μL cell culture+10 μL 20% Triton X-100) were also prepared. The 96-well plate was cultured at 37° C. for 2 hrs in a 5% CO2 incubator. […] Each group of experiment (each concentration) was repeated for six replications. After culturing for 24 hrs, 10 μL TritonX-100 (20%) was added to each positive control well, and mixed by pipetting. The plate was further incubated for 15 min. After culturing, the cells were centrifuged at 1500 rpm for 10 min. 60 μL of supernatant was drawn carefully from the center of each well and transferred to corresponding wells of a transparent new 96-well plate. 30 uL of LDH diluent was added to each well. The plate was cultured at room temperature for 30 min with vibration in a dark environment. OD values were recorded at 492 nm and 900 nm using a microplate reader for calculating ΔOD value. […]
Compound,"MIC (P. aeruginosa CMCC27853; CMCC27853, 24 h) [µg/mL]","MIC (E. coli EPEC O78:K80; EPEC O78:K80, 24 h) [µg/mL]","MIC (E. coli K 12; K 12, 24 h) [µg/mL]","MIC (S. epidermidis ATCC12228; ATCC12228, 24 h) [µg/mL]","MIC (S. typhimurium CMCC50013; CMCC50013, 24 h) [µg/mL]","MIC (E. coli EPEC O44:K74; EPEC O44:K74, 24 h) [µg/mL]","MIC (S. enteritidis CMCC50041; CMCC50041, 24 h) [µg/mL]","MIC (E. coli EPEC O144:K26; EPEC O144:K26, 24 h) [µg/mL]","MIC (E. coli K 88; K 88, 24 h) [µg/mL]","MIC (E. coli ATCC25922; ATCC25922, 24 h) [µg/mL]","MIC (S. aureus ATCC25923; ATCC25923, 24 h) [µg/mL]","MIC ([1]; CMCC50020, 24 h) [µg/mL]",further results
CC(C)C[C@H](NC(=O)[C@H](CCCNC(=N)N)NC(=O)CNC(=O)CNC(=O)[C@@H](N)CCCNC(=N)N)C(=O)N[C@H]1CSSC[C@@H](C(=O)N[C@H](C(=O)NCC(=O)N[C@@H](CCCNC(=N)N)C(N)=O)C(C)C)NC(=O)[C@H](C(C)C)NC(=O)[C@@H]2CSSC[C@H](NC(=O)[C@H](Cc3ccc(O)cc3)NC1=O)C(=O)N[C@@H](CCCNC(=N)N)C(=O)N[C@@H](CCCNC(=N)N)C(=O)N[C@@H](CCCNC(=N)N)C(=O)N[C@@H](Cc1ccccc1)C(=O)N2 [PG-1],8,16,8,4,4,32,16,64,8,4,2,4,hemolysis activity (compared with WY-21) (porcine erythrocytes; FIG. 4): higher than WY-21
SWLSKTAKKLENSAKKRIAIAIQGGPR [CP-1],16,16,8,128,8,32,16,128,4,4,128,8,effect on LPS-induced inflammation [2]: no effects
VKFFRKLKKSVKEKIGKEFKR [WY-21],,,,,,,,,,,,,"MIC (P. aeruginosa CMCC27853; P. aeruginosa CMCC27853, 24 hrs at 37° C., MH broth): 8 µg/mL; MIC (E. coli EPEC O78:K80; E. coli EPEC O78:K80, 24 hrs at 37° C., MH broth): 16 µg/mL; MIC (E. coli K 12; E. coli K 12, 24 hrs at 37° C., MH broth): 4 µg/mL; MIC (S. epidermidis ATCC12228; S. epidermidis ATCC12228, 24 hrs at 37° C., MH broth): 32 µg/mL; MIC (S. typhimurium CMCC50013; S. typhimurium CMCC50013, 24 hrs at 37° C., MH broth): 16 µg/mL; MIC (E. coli EPEC O44:K74; E. coli EPEC O44:K74, 24 hrs at 37° C., MH broth): 8 µg/mL; MIC (S. enteritidis CMCC50041; S. enteritidis CMCC50041, 24 hrs at 37° C., MH broth): 64 µg/mL; MIC (E. coli EPEC O144:K26; E. coli EPEC O144:K26, 24 hrs at 37° C., MH broth): 16 µg/mL; MIC (E. coli K 88; E. coli K 88, 24 hrs at 37° C., MH broth): 8 µg/mL; MIC (E. coli ATCC25922; E. coli ATCC25922, 24 hrs at 37° C., MH broth): 8 µg/mL; MIC (S. aureus ATCC25923; S. aureus ATCC25923, 24 hrs at 37° C., MH broth): 8 µg/mL; LDH releasing rate [3]: less than 10%; hemolysis ratio (porcine erythrocytes; peptide 512 μg/mL, 24 hrs at 37° C.): less than 5%; MIC ([1]; S. choleraesuis CMCC50020, 24 hrs at 37° C., MH broth): 16 µg/mL"
